{
  "source": "patent US7482336B2",
  "about": "“Aminocyclohexanes as dipeptidyl peptidase-IV inhibitors for the treatment or prevention of diabetes” (Merck & Co., Inc., priority 2004, dated 2009)",
  "origin": "cited, not measured here",
  "key": {"[1]": {"settings": "mouse, cyclophosphamide-induced neutropenia; WO 99/56753"}, "[2]": {"settings": "rats; Transplantation 63: 1495-1500 (1997)"}, "DPP-IV": {"target": "T1, DPP-IV (Homo sapiens, UniProt P27487)", "T1 construct": "GRF is rapidly degraded in plasma to GRF[3-44]", "T1 sequence (P27487 whole entry, species assumed)": "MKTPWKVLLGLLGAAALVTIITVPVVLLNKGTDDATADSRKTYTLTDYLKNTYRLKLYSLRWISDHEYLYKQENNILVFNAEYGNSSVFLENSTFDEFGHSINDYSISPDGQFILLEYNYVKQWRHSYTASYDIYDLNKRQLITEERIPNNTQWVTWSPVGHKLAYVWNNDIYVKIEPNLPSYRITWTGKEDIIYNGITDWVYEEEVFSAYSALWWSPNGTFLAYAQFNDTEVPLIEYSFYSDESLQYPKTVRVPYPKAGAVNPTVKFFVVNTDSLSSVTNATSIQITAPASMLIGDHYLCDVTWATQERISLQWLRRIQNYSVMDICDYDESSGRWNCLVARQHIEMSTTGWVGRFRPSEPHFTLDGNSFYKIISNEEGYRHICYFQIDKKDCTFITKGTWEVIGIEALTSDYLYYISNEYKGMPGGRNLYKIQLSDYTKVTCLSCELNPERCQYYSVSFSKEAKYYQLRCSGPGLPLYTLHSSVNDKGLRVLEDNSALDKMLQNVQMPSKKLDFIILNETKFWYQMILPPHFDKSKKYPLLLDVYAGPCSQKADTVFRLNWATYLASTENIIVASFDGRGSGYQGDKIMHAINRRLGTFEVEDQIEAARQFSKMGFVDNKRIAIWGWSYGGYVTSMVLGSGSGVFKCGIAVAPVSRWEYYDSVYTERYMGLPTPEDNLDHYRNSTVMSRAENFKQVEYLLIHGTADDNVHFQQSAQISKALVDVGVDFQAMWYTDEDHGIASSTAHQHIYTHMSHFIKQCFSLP"}},
  "data": [
    {"compound": "CC(C)[C@H](N)C(=O)N1CCC[C@H]1B(O)O", "note": "[Val-Boro-Pro]", "values": [
      {"measurement": "hematopoiesis", "setting": "[1]", "result": "stimulated hematopoiesis"}
    ]},
    {"compound": "CC(C)N1CCC(c2ccccc2)(c2ccccc2)CC1", "note": "[Prodipine, Pro-Pro-diphenyl-phosphonate]", "values": [
      {"measurement": "cardiac allograft survival", "setting": "[2]", "result": "double cardiac allograft survival in rats from day 7 to day 14"}
    ]},
    {"compound": "diprotin A", "values": [
      {"measurement": "degradation of GRF in plasma to GRF[3-44]", "setting": "DPP-IV", "result": "prevented"}
    ]}
  ]
}
